The values below come from publication PMC4237514, “Novel amino-β-lactam derivatives as potent cholesterol absorption inhibitors” (European Journal of Medicinal Chemistry, 2014).

Data set [1] can be described thus: MTT cytotoxicity assay in MDCKII wild type cells. It is filed as cell-based. Particulars: dog, MDCKII wild type cells, read-out: LC50, MDCKII. The protocol: (§1) Cytotoxicity of amino alcohols 5, 6 and their diastereoisomeric mixture 5/6 was analyzed using MTT cell proliferation assay and the LC50 values were determined in MDCKII wild type, hNPC1L1/MDCKII, and HepG2 cells (Table 2). MDCKII cells stably expressing human Niemann-Pick C1-like protein 1 (hNPC1L1/MDCKII) (Figure S1) are a pharmacologically validated system for investigating NPC1L1-mediated cholesterol uptake. The LC50 values were higher than 100 μM and considered nontoxic in all three cell lines. […] In addition, we tested the in vitro cytotoxicity of ezetimibe 1 and compounds 5, 6, and 5/6 (70:30) in combination with micelles and found all LC50 values to be above 100 μM (Figure S2).
(§2) Madin–Darby Canine Kidney II (MDCKII) cells, MDCKII cells stably expressing human NPC1L1 (hNPC1L1/MDCKII), and human HepG2 liver cells were maintained in DMEM (Dulbecco's Modified Eagle Medium, Invitrogen, USA) containing 100 units/mL penicillin and 100 μg/mL streptomycin supplemented with 10% FCS (Sigma–Aldrich, Germany). The cells were grown at 37 °C in a humidified 5% CO2 incubator. Stable transfection of MDCKII cells with human NPC1L1 protein was performed using Lipofectamine LTX (Invitrogen, USA) according to the manufacturer's protocol. Selection with 1 mg/mL G418 (Sigma–Aldrich, Germany) was started 2 days after transfection. The concentration of G418 was decreased to 500 μg/mL after 14 days. Stably transfected cells were maintained in DMEM containing 100 units/mL penicillin and 100 μg/mL streptomycin supplemented with 10% FCS and 500 μg/mL G418.
(§3) MDCKII, hNPC1L1/MDCKII, and HepG2 cells were seeded in 96-well microtiter plates on day 0 at densities of 3000 cells/well. On day 1, tested compounds (73 mM stock solution in DMSO) were added in five consecutive 10-fold dilutions (10^−8 to 10^−4 mol/L) and incubated for 72 h. Cytotoxicity of the compounds was assessed on day 4 by the MTT cell proliferation assay (Sigma–Aldrich, Germany) which detects mitochondrial dehydrogenase activity in viable cells. The results are expressed as LC50 and the values for each compound were calculated from dose–response curves using linear regression analysis. Each concentration was tested in quadruplicate in three independent experiments. Toxicity of the compounds in combination with micelles was also tested using the same method. MDCKII and hNPC1L1/MDCKII were seeded in 96-well microtiter plates (150 μL medium/well) at a density of 2 × 10^5 cells/mL medium 24 h before the experiment. Micelles were prepared according to the modified method reported by Field et al.. In brief, 0.25 mM oleic acid, 50 μM cholesterol, 10 μM compactin, 50 μM mevalonate, 5 mM Na-taurocholate (Sigma–Aldrich, Germany) in DMEM/10% FCS were mixed and sonicated. Following the micellar formation, compounds 1, 5, 6, and 5/6 (70:30) (73 mM stock solution in DMSO) were added to the medium and vortexed to obtain the final concentrations of the compounds (25, 50, 100, 150, 200 μM) and applied to the cells for 1 h. Thereafter, cytotoxicity was determined using the MTT assay.

Data set [2] concerns MDCKII wildtype cells. Description: In vitro [3H]cholesterol uptake assay in MDCKII wildtype cells. It is filed as cell-based, Canine. Conditions: Figure S3. Here is the method: Medium A contained DMEM plus 100 units/mL penicillin and 100 μg/mL streptomycin supplemented with 5% lipoprotein-deficient serum (density > 1.21 g/mL, prepared from FCS by ultracentrifugation). Cholesterol Replenishing Medium (Medium B) was prepared according to the modified method reported by Field et al.. In brief, 0.25 mM oleic acid, 50 μM free cholesterol, 10 μM compactin, 50 μM mevalonate, 5 mM Na-taurocholate (Sigma–Aldrich, Germany), and [^3H]cholesterol (0.18 μCi/mL medium, [1,2–3H(N)] cholesterol, 1 mCi/mL (ARC Inc., USA)) in Medium A were mixed and sonicated. Following the micellar formation, compounds 1, 5, 6, 5/6 (70:30), and 6/5 (85:15) (73 mM stock solution in DMSO) were added to Medium B and vortexed to obtain the final concentrations (10, 30, 60, 90, 120, 150, 200 μM).
MDCKII wildtype and hNPC1L1/MDCKII cells were seeded in 24-well plates at a density of 5 × 10^5 cells/mL medium (500 μL medium/well) in Medium A 24 h before the treatment. […] Cells were lysed and radioactivity in the lysate (100 μL) was determined by liquid scintillation counting. Protein concentrations of the lysates were determined with the DC Protein Assay (Bio-Rad, USA). The results were calculated as cpm/mg protein and expressed as percentage of inhibition compared to untreated cells. […]

Data set [3] has as its system MDCKII cells. Put plainly: MTT cytotoxicity assay in MDCKII wild type cells. Particulars: 72 h. It is filed as cell-based. Here is the method:
as §1, §2, §3

The nature of data set [4]: pKa by spectrophotometric titration. It is filed as physicochemical. Conditions: λ 247 nm, pH 6–12, 20 °C. Here is the method: We determined pKa values of the amino alcohols 5 (Fig. 9) and 6 (data not shown) using spectrophotometric titration.
Stock solution of amino alcohols 5 and 6 (160 μL, 2 mg/mL methanol) was added to NaCl solution in water (20 mL, 0.1 mol/L), thus resulting in a solution of each amino alcohol 5 and 6 in concentration of 4 × 10^−5 mol/L. Furthermore, solutions of NaOH (0.1 mol/L, 1 mol/L and 2 mol/L) were prepared in NaCl solution in water (100 mL, 0.1 mol/L). NaOH solutions (1.5–20 μL) were added to each solution of amino alcohol 5 or 6, pH values measured and UV spectra (λ 200–350 nm) recorded at pH 6–12. The titrations were performed at rt (20 °C) and inflection points of sigmoid curves at λ 247 nm were calculated as pKa values for both amino alcohols.

Each structure is given as a SMILES string.

Turning to `O=C1[C@H](NCC(O)c2ccc(F)cc2)[C@@H](c2ccc(O)cc2)N1c1ccc(F)cc1` (mixture of isomers) [5/6 (70:30), (3R,4R)-3-[(2R/S)-2-(4-fluorophenyl)-2-hydroxyethylamino]-1-(4-fluorophenyl)-4-(4-hydroxyphenyl)azetidin-2-one], in data set [1], the CC50 at 72 h is over 100 µM.
Consider `O=C1[C@H](CC[C@H](O)c2ccc(F)cc2)[C@@H](c2ccc(O)cc2)N1c1ccc(F)cc1` [Compound 1, ezetimibe, reference compound], for which, in data set [2], the “effect on cholesterol uptake” value is recorded as “no effect”. In addition, the CC50 at 72 h in data set [1] is over 100 µM. In addition, the “LC50, MDCKII” value in data set [3] was “no toxicity”.
In data set [4], `O=C1[C@H](NC[C@H](O)c2ccc(F)cc2)[C@@H](c2ccc(O)cc2)N1c1ccc(F)cc1` [Compound 5] yielded a pKa of 9.35. Also, the CC50 at 72 h in data set [1] is over 100 µM.
The corresponding values for `O=C1[C@H](NC[C@@H](O)c2ccc(F)cc2)[C@@H](c2ccc(O)cc2)N1c1ccc(F)cc1` [Compound 6, (3R,4R)-3-[(2S)-2-(4-fluorophenyl)-2-hydroxyethylamino]-1-(4-fluorophenyl)-4-(4-hydroxyphenyl)azetidin-2-one] are 9.35 and over 100 µM.
